In article PMC12203311, “Design, synthesis, in silico and in vitro evaluation of pyrrole–indole hybrids as dual tubulin and aromatase inhibitors with potent anticancer activities” (RSC Advances, 2025):

What was measured:
CCRF-CEM = experiment: NCI60 five-dose screen; type: cell-based; settings: Homo sapiens, leukemia; for CC50: read-out: LC50 (the source's name)
K-562 = experiment: NCI60 five-dose screen; type: cell-based; settings: Homo sapiens, K562, K-562, leukemia; for CC50: read-out: LC50 (the source's name)
MOLT-4 = experiment: NCI60 five-dose screen; type: cell-based; settings: Homo sapiens, MOLT-4, leukemia
EKVX = experiment: NCI60 five-dose screen; type: cell-based; settings: Homo sapiens, NSC lung cancer; for CC50: read-out: LC50 (the source's name)
HOP-92 = experiment: NCI60 five-dose screen; type: cell-based; settings: Homo sapiens, HOP-92, NSC lung cancer; for CC50: read-out: LC50 (the source's name)
NCI-H322M = experiment: NCI60 five-dose screen; type: cell-based; settings: Homo sapiens, NSC lung cancer; for CC50: read-out: LC50 (the source's name)
NCI-H460 = experiment: NCI60 five-dose screen; type: cell-based; settings: Homo sapiens, NCI-H460, NSC lung cancer; for CC50: read-out: LC50 (the source's name)
NCI-H522 = experiment: NCI60 five-dose screen; type: cell-based; settings: Homo sapiens, NCI-H522, NSC lung cancer; for CC50: read-out: LC50 (the source's name)
HCT-116 = experiment: NCI60 five-dose screen; type: cell-based; settings: Homo sapiens, HCT-116, colon cancer; for CC50: read-out: LC50 (the source's name)
HCT-15 = experiment: NCI60 five-dose screen; type: cell-based; settings: Homo sapiens, HCT-15, colon cancer; for CC50: read-out: LC50 (the source's name)
HT29 = experiment: NCI60 five-dose screen; type: cell-based; settings: Homo sapiens, HT-29, HT29, colon cancer; for CC50: read-out: LC50 (the source's name)
KM12 = experiment: NCI60 five-dose screen; type: cell-based; settings: Homo sapiens, KM12, colon cancer; for CC50: read-out: LC50 (the source's name)
SW-620 = experiment: NCI60 five-dose screen; type: cell-based; settings: Homo sapiens, SW-620, colon cancer; for CC50: read-out: LC50 (the source's name)
SF-295 = experiment: NCI60 five-dose screen; type: cell-based; settings: Homo sapiens, SF-295, CNS cancer; for CC50: read-out: LC50 (the source's name)
SF-539 = experiment: NCI60 five-dose screen; type: cell-based; settings: Homo sapiens, SF-539, CNS cancer; for CC50: read-out: LC50 (the source's name)
U251 = experiment: NCI60 five-dose screen; type: cell-based; settings: Homo sapiens, U-251, U251, CNS cancer; for CC50: read-out: LC50 (the source's name)
SK-MEL-2 = experiment: NCI60 five-dose screen; type: cell-based; settings: Homo sapiens, SK-MEL-2, melanoma; for CC50: read-out: LC50 (the source's name)
SK-MEL-28 = experiment: NCI60 five-dose screen; type: cell-based; settings: Homo sapiens, SK-MEL-28, melanoma; for CC50: read-out: LC50 (the source's name)
UACC-257 = experiment: NCI60 five-dose screen; type: cell-based; settings: Homo sapiens, UACC-257, melanoma; for CC50: read-out: LC50 (the source's name)
IGROV1 = experiment: NCI60 five-dose screen; type: cell-based; settings: Homo sapiens, IGROV-1; IGROV1, ovarian cancer
OVCAR-4 = experiment: NCI60 five-dose screen; type: cell-based; settings: Homo sapiens, OVCAR-4, ovarian cancer; for CC50: read-out: LC50 (the source's name)
OVCAR-8 = experiment: NCI60 five-dose screen; type: cell-based; settings: Homo sapiens, OVCAR-8, ovarian cancer; for CC50: read-out: LC50 (the source's name)
NCI/ADR-RES = experiment: NCI60 five-dose screen; type: cell-based, human; settings: Homo sapiens, ovarian cancer
RXF 393 = experiment: NCI60 five-dose screen; type: cell-based; settings: Homo sapiens, RXF 393, renal cancer; for CC50: read-out: LC50 (the source's name)
SN12C = experiment: NCI60 five-dose screen; type: cell-based; settings: Homo sapiens, renal cancer; for CC50: read-out: LC50 (the source's name)
PC-3 = experiment: NCI60 five-dose screen; type: cell-based; settings: Homo sapiens, PC-3, prostate cancer; for CC50: read-out: LC50 (the source's name)
MCF7 = experiment: NCI60 five-dose screen; type: cell-based; settings: Homo sapiens, MCF7, breast cancer; for CC50: read-out: LC50 (the source's name)
T-47D = experiment: NCI60 five-dose screen; type: cell-based; settings: Homo sapiens, T47D, breast cancer; for CC50: read-out: LC50 (the source's name)
[1] = tested on: T47D breast cancer cell line; experiment: Cytotoxicity MTT assay, T47D; type: cell-based, human; settings: Homo sapiens, T47D; MTT, 48 hours
Procedure, shortened: (§1)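 Seed 10 000 cells per well and let them grow overnight. Treat with compounds in medium for 48 h at 37 °C under 5% CO2. Replace medium with MTT at 0.5 mg mL^−1 for 3 h, dissolve formazan in DMSO, measure at 570 nm, normalise to DMSO control.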

[2] = Cytotoxicity MTT assay, L929; type: cell-based, mouse; settings: mouse, L929 fibroblast cells; MTT, 48 hours
Procedure, shortened: as §1

[3] = tested on: L929 normal mouse fibroblast cell line; experiment: Cytotoxicity MTT assay, L929; type: cell-based; settings: IC50 (L929)/IC50 (T47D)
Procedure, shortened: as §1

[4] = read-out: LC50 (the source's name)

SMILES: O=C(N/N=C/c1cc(Cl)c[nH]1)c1[nH]c2ccc(Br)cc2c1-c1ccccc1 [Derivative 3h, (E)-5-Bromo-N′-((4-chloro-1H-pyrrol-2-yl)methylene)-3-phenyl-1H-indole-2-carbohydrazide]
- GI50 (CCRF-CEM): 0.132 µM
- CC50 (CCRF-CEM): > 100 µM
- GI50 (K-562): 0.234 µM
- CC50 (K-562): 5.64 µM
- GI50 (MOLT-4): 0.283 µM
- GI50 (EKVX): 1.28 µM
- CC50 (EKVX): > 100 µM
- GI50 (HOP-92): 1.19 µM
- CC50 (HOP-92): 55.4 µM
- GI50 (NCI-H322M): 0.768 µM
- CC50 (NCI-H322M): 92.3 µM
- GI50 (NCI-H460): 0.281 µM
- CC50 (NCI-H460): 9.24 µM
- GI50 (NCI-H522): 0.211 µM
- CC50 (NCI-H522): > 100 µM
- GI50 (HCT-116): 0.331 µM
- CC50 (HCT-116): 29.1 µM
- GI50 (HCT-15): 0.302 µM
- CC50 (HCT-15): 21.9 µM
- GI50 (HT29): 0.287 µM
- CC50 (HT29): 7.2 µM
- GI50 (KM12): 0.328 µM
- CC50 (KM12): 20.7 µM
- GI50 (SW-620): 0.328 µM
- CC50 (SW-620): 80.9 µM
- GI50 (SF-295): 0.237 µM
- CC50 (SF-295): 58.5 µM
- GI50 (SF-539): 0.231 µM
- CC50 (SF-539): 22.1 µM
- GI50 (U251): 0.349 µM
- CC50 (U251): 24.9 µM
- GI50 (SK-MEL-2): 0.26 µM
- CC50 (SK-MEL-2): 47.9 µM
- GI50 (SK-MEL-28): 0.582 µM
- CC50 (SK-MEL-28): 47.9 µM
- GI50 (UACC-257): 0.856 µM
- CC50 (UACC-257): 58.8 µM
- GI50 (IGROV1): 0.538 µM
- GI50 (OVCAR-4): 0.555 µM
- CC50 (OVCAR-4): 34.1 µM
- GI50 (OVCAR-8): 0.214 µM
- CC50 (OVCAR-8): 0.988 µM
- GI50 (NCI/ADR-RES): 0.2 µM
- GI50 (RXF 393): 0.219 µM
- CC50 (RXF 393): 34.3 µM
- GI50 (SN12C): 0.391 µM
- CC50 (SN12C): 15.3 µM
- GI50 (PC-3): 0.426 µM
- CC50 (PC-3): 47.6 µM
- GI50 (MCF7): 0.309 µM
- CC50 (MCF7): 53.5 µM
- GI50 (T-47D): 0.546 µM
- CC50 (T-47D): 92.6 µM
- IC50 [1]: 2.4 ± 1.8 µM
- IC50 at 48 h [2]: 53.7 ± 30.4 µM
- Selectivity index (SI) [3]: 22.4

SMILES: CCOC(=O)c1c[nH]c(/C=N/NC(=O)c2[nH]c3ccc(Br)cc3c2-c2ccccc2)c1 [Derivative 3j, Ethyl (E)-5-((2-(5-bromo-3-phenyl-1H-indole-2-carbonyl)hydrazono)methyl)-1H-pyrrole-3-carboxylate]
- GI50 (CCRF-CEM): 2.41 µM
- CC50 (CCRF-CEM): > 100 µM
- GI50 (K-562): 1.9 µM
- CC50 (K-562): 57.1 µM
- GI50 (MOLT-4): 2.1 µM
- CC50 (MOLT-4; [4]): 53.4 µM
- GI50 (EKVX): 4.57 µM
- CC50 (EKVX): 43.1 µM
- GI50 (HOP-92): 4.56 µM
- CC50 (HOP-92): 58.6 µM
- GI50 (NCI-H322M): 5.63 µM
- CC50 (NCI-H322M): 50 µM
- GI50 (NCI-H460): 2.41 µM
- CC50 (NCI-H460): 23.1 µM
- GI50 (NCI-H522): 2.27 µM
- CC50 (NCI-H522): 33 µM
- GI50 (HCT-116): 2.95 µM
- CC50 (HCT-116): 45.6 µM
- GI50 (HCT-15): 2.93 µM
- CC50 (HCT-15): 51.9 µM
- GI50 (HT29): 2.59 µM
- CC50 (HT29): 27.5 µM
- GI50 (KM12): 2.21 µM
- CC50 (KM12): 33.9 µM
- GI50 (SW-620): 3.36 µM
- CC50 (SW-620): 76.2 µM
- GI50 (SF-295): 2.34 µM
- CC50 (SF-295): 24.4 µM
- GI50 (SF-539): 2.26 µM
- CC50 (SF-539): 19.4 µM
- GI50 (U251): 2.66 µM
- CC50 (U251): 40.6 µM
- GI50 (SK-MEL-2): 2.8 µM
- CC50 (SK-MEL-2): 32.8 µM
- GI50 (SK-MEL-28): 4.56 µM
- CC50 (SK-MEL-28): 45.8 µM
- GI50 (UACC-257): 2.53 µM
- CC50 (UACC-257): 51.8 µM
- GI50 (IGROV1): 3.91 µM
- GI50 (OVCAR-4): 2.28 µM
- CC50 (OVCAR-4): 34.8 µM
- GI50 (OVCAR-8): 2.37 µM
- CC50 (OVCAR-8): 23.7 µM
- GI50 (NCI/ADR-RES): 1.89 µM
- CC50 (NCI/ADR-RES; [4]): 10.4 µM
- GI50 (RXF 393): 1.36 µM
- CC50 (RXF 393): 22 µM
- GI50 (SN12C): 2.49 µM
- CC50 (SN12C): 33.3 µM
- GI50 (PC-3): 3.76 µM
- CC50 (PC-3): > 100 µM
- GI50 (MCF7): 2.76 µM
- CC50 (MCF7): 50.2 µM
- GI50 (T-47D): 2.91 µM
- CC50 (T-47D): 86.9 µM
- IC50 [1]: 10.4 ± 2.9 µM
- IC50 at 48 h [2]: 12.2 ± 1 µM
- Selectivity index (SI) [3]: 1.17
